# Data published in publication PMC12621043, “Un-LOK-ing a New Approach for Conformational Selective Targeting of STK10 (LOK)” (ACS Medicinal Chemistry Letters, 2025).
# Experiments:
# Assay in all cases: DSF Tm panel
# Assay type in all cases: binding
# Details in all cases: 10 μM compound
# BMX (BMXA) = target: T1, BMX (BMXA) (Homo sapiens, UniProt P51813)
# T1 construct: purchased in-house DSF kinase panel (SGC-style construct names; the trailing letter is the construct ID)
# BRD4 (BRD4A) = target: T2, BRD4 (BRD4A) (Homo sapiens, UniProt O60885)
# T2 construct: purchased in-house DSF kinase panel (SGC-style construct names; the trailing letter is the construct ID)
# CHEK2A = target: T3, CHEK2A (Homo sapiens, UniProt O96017)
# T3 construct: purchased in-house DSF kinase panel (SGC-style construct names; the trailing letter is the construct ID)
# CLK3A = target: T4, CLK3A (Homo sapiens, UniProt P49761)
# T4 construct: purchased in-house DSF kinase panel (SGC-style construct names; the trailing letter is the construct ID)
# EPHA5A = target: T5, EPHA5A (Homo sapiens, UniProt P54756)
# T5 construct: purchased in-house DSF kinase panel (SGC-style construct names; the trailing letter is the construct ID)
# T5 sequence (P54756 653-939): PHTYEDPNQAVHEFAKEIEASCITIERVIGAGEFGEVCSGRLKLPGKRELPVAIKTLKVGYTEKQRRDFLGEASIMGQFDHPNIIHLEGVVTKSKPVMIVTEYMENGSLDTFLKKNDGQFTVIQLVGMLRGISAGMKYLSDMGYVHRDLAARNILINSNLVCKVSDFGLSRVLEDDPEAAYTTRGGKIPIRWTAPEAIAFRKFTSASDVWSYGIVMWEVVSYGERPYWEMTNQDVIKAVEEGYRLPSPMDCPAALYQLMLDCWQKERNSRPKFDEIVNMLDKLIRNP
# FGFR1B = target: T6, FGFR1B (Homo sapiens, UniProt P11362)
# T6 construct: purchased in-house DSF kinase panel (SGC-style construct names; the trailing letter is the construct ID)
# GSK3BB = target: T7, GSK3BB (Homo sapiens, UniProt P49841)
# T7 construct: purchased in-house DSF kinase panel (SGC-style construct names; the trailing letter is the construct ID)
# K2A2 (CSNK2A2A) = target: T8, K2A2 (CSNK2A2A) (Homo sapiens, UniProt P19784)
# T8 construct: purchased in-house DSF kinase panel (SGC-style construct names; the trailing letter is the construct ID)
# PAK4A = target: T9, PAK4A (Homo sapiens, UniProt O96013)
# T9 construct: purchased in-house DSF kinase panel (SGC-style construct names; the trailing letter is the construct ID)
# PIM3A = target: T10, PIM3A (Homo sapiens, UniProt Q86V86)
# T10 construct: purchased in-house DSF kinase panel (SGC-style construct names; the trailing letter is the construct ID)
# STK17AA = target: T11, STK17AA (Homo sapiens, UniProt Q9UEE5)
# T11 construct: purchased in-house DSF kinase panel (SGC-style construct names; the trailing letter is the construct ID)
# T11 sequence (Q9UEE5 61-321): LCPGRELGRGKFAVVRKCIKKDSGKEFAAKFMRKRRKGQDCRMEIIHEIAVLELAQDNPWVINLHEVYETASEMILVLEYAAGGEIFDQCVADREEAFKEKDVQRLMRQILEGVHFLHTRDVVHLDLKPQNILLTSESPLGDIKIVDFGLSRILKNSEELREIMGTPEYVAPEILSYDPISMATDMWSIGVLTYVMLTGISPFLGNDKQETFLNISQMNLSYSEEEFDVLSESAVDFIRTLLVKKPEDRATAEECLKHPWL
# STK6A = target: T12, STK6A (Homo sapiens, UniProt O14965)
# T12 construct: purchased in-house DSF kinase panel (SGC-style construct names; the trailing letter is the construct ID)
# T12 sequence (O14965 122-403): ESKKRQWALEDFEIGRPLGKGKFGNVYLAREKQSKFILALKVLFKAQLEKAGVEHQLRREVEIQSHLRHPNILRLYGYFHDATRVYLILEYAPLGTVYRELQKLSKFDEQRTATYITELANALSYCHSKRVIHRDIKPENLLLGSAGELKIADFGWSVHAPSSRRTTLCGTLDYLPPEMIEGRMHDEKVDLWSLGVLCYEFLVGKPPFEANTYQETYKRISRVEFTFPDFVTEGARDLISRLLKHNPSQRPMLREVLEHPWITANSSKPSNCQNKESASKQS
# TAF1A = tested on: TAF1A
# TTKA = target: T13, TTKA (Homo sapiens, UniProt P33981)
# T13 construct: purchased in-house DSF kinase panel (SGC-style construct names; the trailing letter is the construct ID)
# T13 sequence (P33981 519-808): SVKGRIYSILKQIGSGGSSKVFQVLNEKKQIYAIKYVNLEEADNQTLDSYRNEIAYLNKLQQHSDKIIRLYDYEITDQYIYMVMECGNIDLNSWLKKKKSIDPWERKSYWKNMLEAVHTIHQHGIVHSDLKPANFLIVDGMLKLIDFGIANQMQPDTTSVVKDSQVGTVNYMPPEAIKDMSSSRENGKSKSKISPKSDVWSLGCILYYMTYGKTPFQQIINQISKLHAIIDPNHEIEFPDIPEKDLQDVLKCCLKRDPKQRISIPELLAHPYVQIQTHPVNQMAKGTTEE
# ULK1A = target: T14, ULK1A (Homo sapiens, UniProt O75385)
# T14 construct: purchased in-house DSF kinase panel (SGC-style construct names; the trailing letter is the construct ID)
# T14 sequence (O75385 1-283): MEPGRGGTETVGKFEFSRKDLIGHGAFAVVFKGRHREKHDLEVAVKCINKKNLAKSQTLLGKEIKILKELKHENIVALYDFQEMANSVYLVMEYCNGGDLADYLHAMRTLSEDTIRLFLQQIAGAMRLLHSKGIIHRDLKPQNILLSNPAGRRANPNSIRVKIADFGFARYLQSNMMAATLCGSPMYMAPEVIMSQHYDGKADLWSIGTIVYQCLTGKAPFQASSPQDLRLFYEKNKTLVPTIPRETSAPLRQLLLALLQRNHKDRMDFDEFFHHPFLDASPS
# T4 sequence (P49761 127-484): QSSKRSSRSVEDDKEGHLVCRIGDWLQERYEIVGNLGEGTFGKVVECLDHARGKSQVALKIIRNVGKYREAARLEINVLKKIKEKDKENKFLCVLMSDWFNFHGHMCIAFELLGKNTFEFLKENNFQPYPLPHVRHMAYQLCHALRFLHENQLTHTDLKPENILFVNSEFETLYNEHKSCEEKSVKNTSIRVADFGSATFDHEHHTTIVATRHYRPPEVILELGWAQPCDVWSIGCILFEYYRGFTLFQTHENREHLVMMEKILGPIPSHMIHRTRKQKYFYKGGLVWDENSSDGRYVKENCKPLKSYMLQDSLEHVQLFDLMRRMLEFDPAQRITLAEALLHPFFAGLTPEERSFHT
# T3 sequence (O96017 210-531): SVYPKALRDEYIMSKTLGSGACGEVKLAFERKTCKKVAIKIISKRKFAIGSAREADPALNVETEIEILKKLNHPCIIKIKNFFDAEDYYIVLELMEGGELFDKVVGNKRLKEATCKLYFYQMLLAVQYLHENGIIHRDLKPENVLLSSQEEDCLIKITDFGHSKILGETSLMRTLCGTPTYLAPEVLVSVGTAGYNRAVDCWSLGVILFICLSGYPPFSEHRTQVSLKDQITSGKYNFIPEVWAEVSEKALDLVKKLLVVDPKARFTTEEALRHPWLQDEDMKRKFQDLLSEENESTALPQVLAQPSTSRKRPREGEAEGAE
# T9 sequence (O96013 291-591): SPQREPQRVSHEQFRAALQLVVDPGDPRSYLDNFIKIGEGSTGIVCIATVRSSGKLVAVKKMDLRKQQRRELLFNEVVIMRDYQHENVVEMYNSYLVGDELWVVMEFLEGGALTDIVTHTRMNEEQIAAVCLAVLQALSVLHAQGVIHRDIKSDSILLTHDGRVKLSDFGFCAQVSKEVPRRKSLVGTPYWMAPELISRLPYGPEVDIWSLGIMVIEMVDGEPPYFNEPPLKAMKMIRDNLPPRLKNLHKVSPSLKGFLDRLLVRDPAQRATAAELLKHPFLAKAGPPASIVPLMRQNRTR
# T7 sequence (P49841 35-386): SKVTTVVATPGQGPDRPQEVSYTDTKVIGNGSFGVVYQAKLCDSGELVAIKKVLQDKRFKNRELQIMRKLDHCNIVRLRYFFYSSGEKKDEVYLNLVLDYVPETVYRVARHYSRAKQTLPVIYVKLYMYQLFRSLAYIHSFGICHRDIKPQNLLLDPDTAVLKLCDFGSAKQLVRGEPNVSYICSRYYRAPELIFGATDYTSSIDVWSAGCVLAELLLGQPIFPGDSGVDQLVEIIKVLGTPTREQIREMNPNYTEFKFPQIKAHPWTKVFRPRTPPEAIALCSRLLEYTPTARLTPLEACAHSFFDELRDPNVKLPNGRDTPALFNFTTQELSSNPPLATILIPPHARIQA
# T1 sequence (P51813 411-675): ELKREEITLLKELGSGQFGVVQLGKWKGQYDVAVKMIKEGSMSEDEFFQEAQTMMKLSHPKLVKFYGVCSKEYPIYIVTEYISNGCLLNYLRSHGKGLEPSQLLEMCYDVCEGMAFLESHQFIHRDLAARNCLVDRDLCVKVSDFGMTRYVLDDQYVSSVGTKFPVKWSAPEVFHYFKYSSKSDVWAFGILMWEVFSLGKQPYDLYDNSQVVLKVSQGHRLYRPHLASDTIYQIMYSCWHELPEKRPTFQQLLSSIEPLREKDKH
# T6 sequence (P11362 456-767): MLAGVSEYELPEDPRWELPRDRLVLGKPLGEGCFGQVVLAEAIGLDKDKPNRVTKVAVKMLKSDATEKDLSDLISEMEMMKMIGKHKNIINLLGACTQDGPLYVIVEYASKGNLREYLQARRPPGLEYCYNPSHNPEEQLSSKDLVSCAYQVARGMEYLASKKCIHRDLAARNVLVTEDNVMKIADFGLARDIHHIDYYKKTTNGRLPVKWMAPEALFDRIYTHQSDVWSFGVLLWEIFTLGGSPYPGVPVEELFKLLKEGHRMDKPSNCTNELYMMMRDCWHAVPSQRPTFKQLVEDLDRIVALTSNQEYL
# T8 sequence (P19784 whole entry): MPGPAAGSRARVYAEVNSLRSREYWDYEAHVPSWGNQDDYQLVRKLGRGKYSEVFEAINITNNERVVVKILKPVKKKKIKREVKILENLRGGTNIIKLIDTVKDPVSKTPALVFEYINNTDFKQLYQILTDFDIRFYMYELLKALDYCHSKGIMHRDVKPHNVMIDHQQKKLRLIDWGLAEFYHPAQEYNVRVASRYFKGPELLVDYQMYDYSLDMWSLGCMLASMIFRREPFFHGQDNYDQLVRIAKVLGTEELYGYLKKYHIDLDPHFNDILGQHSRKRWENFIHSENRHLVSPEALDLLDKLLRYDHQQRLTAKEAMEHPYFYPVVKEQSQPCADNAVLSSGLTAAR
Structure (SMILES),ΔTm at 10 µM (BMX (BMXA)),ΔTm at 10 µM (BRD4 (BRD4A)),ΔTm at 10 µM (CHEK2A),ΔTm at 10 µM (CLK3A),ΔTm at 10 µM (EPHA5A),ΔTm at 10 µM (FGFR1B),ΔTm at 10 µM (GSK3BB),ΔTm at 10 µM (K2A2 (CSNK2A2A)),ΔTm at 10 µM (PAK4A),ΔTm at 10 µM (PIM3A),ΔTm at 10 µM (STK17AA),ΔTm at 10 µM (STK6A),ΔTm at 10 µM (TTKA),ΔTm at 10 µM (ULK1A),ΔTm TAF1A (TAF1A)
COc1ccc(CNC(=O)Nc2ccc3cc2OCCOCCNc2ccn4ncc-3c4n2)cc1 [compound 31],1.4 °C,0.6 °C,7 °C,0 °C,1.2 °C,1.5 °C,1 °C,2.5 °C,1.7 °C,4.9 °C,5.1 °C,8 °C,1.8 °C,0.6 °C,"0,0 °C"
O=C(NCc1ccc(C(F)(F)F)cc1)Nc1ccc2cc1OCCOCCNc1ccn3ncc-2c3n1 [compound 28],2.7 °C,2.1 °C,7.7 °C,0.4 °C,1.9 °C,1.5 °C,0.2 °C,0.5 °C,2.4 °C,4.3 °C,2.4 °C,7.6 °C,3.1 °C,0.6 °C,"0,3 °C"
O=C(NCc1ccccc1)Nc1ccc2cc1OCCOCCNc1ccn3ncc-2c3n1 [compound 16],1.7 °C,0.7 °C,6.5 °C,0.3 °C,0.1 °C,2.4 °C,1.1 °C,2.3 °C,-0.2 °C,2.4 °C,4.9 °C,7.5 °C,1.5 °C,0.6 °C,"0,4 °C"
C[C@H](NC(=O)Nc1ccc2cc1OCCOCCNc1ccn3ncc-2c3n1)c1ccccc1 [compound 34],0.1 °C,-0.1 °C,6.3 °C,0 °C,1 °C,1.2 °C,1.1 °C,1.2 °C,1.4 °C,4.4 °C,6 °C,7.7 °C,1.8 °C,-0.1 °C,"-0,3 °C"

# Continued, in another order:
ΔTm at 10 µM (BMX (BMXA)),ΔTm at 10 µM (BRD4 (BRD4A)),ΔTm at 10 µM (CHEK2A),ΔTm at 10 µM (CLK3A),ΔTm at 10 µM (EPHA5A),ΔTm at 10 µM (FGFR1B),ΔTm at 10 µM (GSK3BB),ΔTm at 10 µM (K2A2 (CSNK2A2A)),ΔTm at 10 µM (PAK4A),ΔTm at 10 µM (PIM3A),ΔTm at 10 µM (STK17AA),ΔTm at 10 µM (STK6A),ΔTm at 10 µM (TTKA),ΔTm at 10 µM (ULK1A),Structure (SMILES),ΔTm TAF1A (TAF1A)
0.3 °C,0.5 °C,7.2 °C,0.1 °C,1.1 °C,1.9 °C,0.5 °C,0.9 °C,1.8 °C,4 °C,5.2 °C,6.4 °C,1.9 °C,0.1 °C,Cc1ccc(F)cc1CNC(=O)Nc1ccc2cc1OCCOCCNc1ccn3ncc-2c3n1 [compound 26],"0,1 °C"
-0.1 °C,0.3 °C,5.8 °C,0.2 °C,0.6 °C,1.4 °C,1.2 °C,0.3 °C,1.3 °C,3.9 °C,3.1 °C,5.6 °C,1.4 °C,0.4 °C,COc1ccccc1CNC(=O)Nc1ccc2cc1OCCOCCNc1ccn3ncc-2c3n1 [compound 29],"0,0 °C"
0.4 °C,0.1 °C,5.1 °C,0.2 °C,0.7 °C,1.4 °C,1.3 °C,0.8 °C,1.5 °C,4.1 °C,5.8 °C,7.4 °C,1.6 °C,0.5 °C,COc1cccc(CNC(=O)Nc2ccc3cc2OCCOCCNc2ccn4ncc-3c4n2)c1 [compound 30],"-0,1 °C"
